Reference: patent US6943147B2, “Cancer treatment using proANP peptides” (University of South Florida, priority 2003, dated 2005)

Legend:
[1] = test system: pancreatic adenocarcinoma cells; details: in one study; cited from earlier work
rat mesangial cells = details: cited from earlier work
[2] = test system: pancreatic adenocarcinoma cells; test: DNA synthesis by bromodeoxyuridine (BrdU) incorporation into adenocarcinoma cells; assay type: cell-based, human; details: 24 hours
Source text: To investigate whether these peptide hormones were inhibiting DNA synthesis and cell proliferation bromodeoxyuridine (BrdU) incorporation into the adenocarcinoma cells was utilized. BrdU was from BD Bioscience, San Jose, Calif. DNA synthesis and doubling of the genome take place during the synthetic or S phase. BrdU is a thymidine analog incorporated into nuclear DNA during the S phase of the cell cycle. Immunohistochemical methods use BrdU also as a marker of cell proliferation in cancer biology studies. After 24 hours in culture with 1 μM of LANP, vessel dilator, kaliuretic peptide, or ANP, respectively, or with no peptide hormone (i.e., control), BrdU in a final concentration of 10 μM in the cell culture medium was added for 45 minutes—which is time in which the cells are in the logarithmic phase of cell proliferation. For immunohistochemistry, a BrdU in situ detection kit from Becton Dickinson Immunocytochemistry Systems, San Jose, Calif., was utilized.
After the 45 minutes with BrdU, the adenocarcinoma cells were washed three times in phosphate buffered saline (PBS), five minutes each. This was followed by placing the cells in a −80° C. freezer for five minutes and then 100% methanol was added at 5° C. in order for the cells to become permeable enabling the anti-BrdU antibody to reach the nucleus of the cell. The cells were then washed again in PBS before 100 μl of biotinylated anti-BrdU antibody was added. The coverslips were then incubated in a humidified chamber for one hour. After this incubation, the slides were rinsed in PBS, two minutes each. Then streptavidin-horseradish peroxidase (HRP) was added to each coverslip. The cells were then incubated for 30 minutes. Streptavidin-HRP binds to biotinylated anti-BrdU and HRP is used with addition of diaminobenzidine (DAB) substrate system to visualize BrdU incorporation into the adénocarcinoma cells. After the 30 minute incubation with streptavidin-HRP, the coverslips were rinsed in PBS, two minutes each time, before adding the DAB substrate solution, which contains DAB chromagen and DAB buffer, for five minutes. The coverslips were then rinsed in water, two minutes each time before counterstaining the slides with hematoxylin for 60 seconds followed by a thorough rinsing in water for five minutes. The incorporation of the BrdU stain into the nucleus was then counted using a Nikon Inverted Diaphot-TMD Microscope (Tokyo, Japan). The number of stained nuclei was compared in the four peptide hormone groups to the positive control group. The negative control for these studies was provided by Becton Dickinson Immunocytochemistry Systems.
BrdU has an advantage over ^3H-thymidine incorporation in that it takes less time and provides high resolution.
Cyclic GMP and prostaglandin E2 are the two known mediators of all of the previously described biologic effects of these four peptide hormones. All four of these peptide hormones-induced vasodilation of vasculature is mediated by increased cyclic GMP concentrations via enhancing guanylate cyclase activity. […] ANPs effects in the kidney are thought to be mediated by cyclic GMP. Each of these peptide hormones increase cyclic GMP while simultaneously dilating vasculature. 8 bromo-cyclic GMP reproduces these vasodilatory effects. For the present investigation of the mechanism of these peptide hormones' ability to inhibit DNA synthesis in cancer cells, 8-bromoguanosine 3′,5′-cyclic monophosphate (i.e., 8-bromo cyclic GMP, Sigma-Aldrich Co., St. Louis, Mo.) was utilized. 8-bromo cyclic GMP is a cell-permeable analog of cyclic GMP. 8-bromo cyclic GMP effects on DNA synthesis were investigated in dose-response curves with cyclic GMP concentrations ranging from 100 pM to 5 mM.
Prostaglandin E2, i.e., (5Z, 11α, 13E, 15S)-11, 15-dihydro-9-oxo-prosta-5, 13-dien-I-oic acid was purchased from Sigma-Aldrich, St. Louis, Mo. […]

[3] = test system: pancreatic adenocarcinoma cell line, ATCC number CRL-2119; test: Number of pancreatic adenocarcinoma cells in culture, counted by microscope; assay type: cell-based, human; details: for number of cancer cells compared to controls: 48 hours
Source text: The pancreatic adenocarcinoma cell line, ATCC number CRL-2119, was derived in 1985 from a nude mouse xenograft of a primary tumor removed from the head of the pancreas. It is a moderate to well-differentiated pancreatic adenocarcinoma of ductal origin. These pancreatic adenocarcinoma cells are stimulated to proliferate in culture by insulin, insulin-like growth factor I (IGF-I), epidermal growth factor (EGF), and transforming growth factor alpha (TGF alpha). These adenocarcinoma cells contain significant concentrations of tumor-associated antigens CEA, CA 125, and CA 19-9. In culture, these adenocarcinoma cells form monolayers of morphologically heterogeneous polar epithelial cells. These cells are tumorgenic in that they form tumors in athymic nude mice at the site of inoculation that are histologically similar to the tumor of origin.
Propagation of these cells was in Dulbecco's modified Eagle's plus Ham's F12-A 1:1 mixture of Dulbecco's modified Eagle's medium and Ham's F12 medium containing 1.2 g/L of sodium bicarbonate (Sigma Chemical Co., St. Louis, Mo.) supplemented with 15 mM HEPES and fetal bovine serum, 10%, at a temperature of 37° C. as recommended by the ATCC.
These pancreatic adenocarcinoma cells were subcultured (passaged) by removing spent (i.e., old) medium by aspiration, and then adding calcium and magnesium free Hank's Balanced Salt Solution with 0.25% trypsin and 0.03% ethylenediaminetetracetic acid (EDTA). The culture was allowed to sit at room temperature for 2 to 5 minutes. Fresh medium was added to the adenocarcinoma cells which were dispensed into new flasks, with subculture every 6 to 8 days. The growth medium was changed every three days.
After these adenocarcinoma cells were subcultured for 24 hours, they were then seeded to coverslips and transferred to 24 microwell plates (NUCOLON, Roskilde Denmark), with 1 ml Dulbeco Modified Eagle's (DME)/[…] nutrient culture media (Sigma Chemical Co.) with 10% fetal bovine serum (Atlanta Biologicals, Norcross, Ga.). After 24 hours, wells were washed twice with Dulbecco's Modified Eagle's/Ham's F12 with 0.1% bovine serum albumin (Sigma-Aldrich, St. Louis, Mo.) and allowed to incubate in this serum free medium for an additional 24 hour period of serum deprivation. Serum-free media was utilized to remove all variables (EGF, etc.) present in serum in order that interpretation of any data obtained would be straightforward. After 24 hours of serum deprivation, media volume was reduced to 250 μL per well with or without the respective peptide hormones at their 1 μM concentrations (1% of this volume). The adenocarcinoma cells were then incubated for various periods of time (24, 48, 72, and 96 hours).At the end of the above time periods, hematoxylin was added for 5 minutes to make the cells more visible for counting, and then they were washed for 5 minutes. The coverslips were then placed face down on microscope slides with the addition of 6 μl of histologic grade phosphate buffered saline (PBS)/I-glycine that had been filtered immediately before use with a 0.22 μm polyethersulfone, nonpyrogenic, sterile, low protein binding membrane (Corning 43117, Corning Inc., Corning, N.Y.). The number of adenocarcinoma cells were then counted with a cell counter evaluating ten fields of the microscope slide at 40× along the X-axis with an Olympus BH-2 microscope (Atlanta, Ga.). This evaluation was repeated on six separate occasions with the number of adenocarcinoma cells reflecting 60 observations for each group, i.e., 60 observations for controls and 60 observations for each of the four groups with respective peptide hormones. The only variable in this investigation was whether one of the four peptide hormones was added to the pancreatic adenocarcinoma cells. Otherwise all the adenocarcinoma cells were treated the same, i.e., with same culture medium, time of incubation, and processing of cells for the various investigations. […]

hepatoblastoma cells = details: cited from earlier work

## O=c1[nH]cc(F)c(=O)[nH]1 [5-FU, 5-fluorouracil]
[1]
  decrease in pancreatic adenocarcinoma cells in culture: 16%

## CC[C@H](C)[C@@H]1NC(=O)[C@H](CCCNC(=N)N)NC(=O)[C@H](CC(=O)O)NC(=O)[C@H](CCSC)NC(=O)[C@H](CCCNC(=N)N)NC(=O)CNC(=O)CNC(=O)[C@H](Cc2ccccc2)NC(=O)[C@@H](NC(=O)[C@H](CO)NC(=O)[C@H](CO)NC(=O)[C@H](CCCNC(=N)N)NC(=O)[C@H](CCCNC(=N)N)NC(=O)[C@H](CC(C)C)NC(=O)[C@@H](N)CO)CSSC[C@@H](C(=O)N[C@@H](CC(N)=O)C(=O)N[C@@H](CO)C(=O)N[C@@H](Cc2ccccc2)C(=O)N[C@@H](CCCNC(=N)N)C(=O)N[C@@H](Cc2ccc(O)cc2)C(=O)O)NC(=O)CNC(=O)[C@H](CC(C)C)NC(=O)CNC(=O)[C@H](CO)NC(=O)[C@H](CCC(N)=O)NC(=O)[C@H](C)NC(=O)CNC1=O [ANP]
Rat mesangial cells
  inhibition of DNA synthesis: 47% to 60
[2]; 1 μM
  inhibition of DNA synthesis: 83%
[3]; 1 μM
  number of cancer cells compared to controls: 33%
Hepatoblastoma cells
  inhibition of DNA synthesis: 22%

## CCCCC[C@H](O)/C=C/[C@H]1[C@H](O)CC(=O)[C@@H]1C/C=C\CCCC(=O)O [prostaglandin E2, (5Z, 11α, 13E, 15S)-11, 15-dihydro-9-oxo-prosta-5, 13-dien-I-oic acid]
[2]; 10 pg/ml
  decrease in DNA synthesis: 4%
[2]; 1 ng/ml
  decrease in DNA synthesis: 5%
[2]; 10 ng/ml
  decrease in DNA synthesis: 5%
[2]; 0.1 μg/ml
  decrease in DNA synthesis: 9%
[2]; 1 μg/ml
  decrease in DNA synthesis: 11%
[2]; 10 μg/ml
  decrease in DNA synthesis: 14%
[2]; 1 mg/ml
  decrease in DNA synthesis: 23%

## LANP: first 30 amino acids from the N-terminal end of the ANP prohormone (NPMYNAVSNADLMDFKNLLDHLEEKMPLED; long-acting natriuretic peptide; UniProt P01160 26-55, looked up, fragment)
[2]; 1 μM
  inhibition of DNA synthesis: 84%
[3]; 1 μM, 24 hours, vs untreated cells
  decrease in the number of adenocarcinoma cells: 47%
[3]; 1 μM, 24 hours, untreated 183.4+/−8
  number of adenocarcinoma cells: 97.7+/−3 cells per high powered field
[3]; 1 μM
  number of cancer cells compared to controls: 43%
[3]; 1 μM, 72 hours, vs untreated cells
  decrease in the number of adenocarcinoma cells: 47%
[3]; 1 μM, 96 hours, vs untreated cells
  decrease in the number of adenocarcinoma cells: 48%
[3]; time not stated
  decrease in the number of adenocarcinoma cells: ~50%

## Nc1nc2c(nc(Br)n2[C@@H]2O[C@@H]3COP(=O)(O)O[C@H]3[C@H]2O)c(=O)[nH]1 [8-bromo cyclic GMP, 8-bromoguanosine 3′,5′-cyclic monophosphate]
[2]; 1 nM
  decrease in DNA synthesis: 25%
[2]; 1 μM
  decrease in DNA synthesis: 34%
[2]; 100 μM
  decrease in DNA synthesis: 39%
[2]; 1 mM
  decrease in DNA synthesis: 42%
[2]; 3 mM
  decrease in DNA synthesis: 46%
[2]; 5 mM
  decrease in DNA synthesis: 51%
